Reference: patent US8178506B2, “Oligomeric compounds and compositions for use in modulation of small non-coding RNAs” (Regulus Therapeutics Inc., priority 2003, dated 2012)
In the oligonucleotide strings, read from the 5' end, every base follows the letter of its sugar. An asterisk marks phosphorothioate; unmarked linkages are phosphodiester. Other units and linkages are bracketed, terminal groups are in braces. A string of capitals states the bases alone. e = 2'-O-(2-methoxyethyl) (MOE); [5mC] = 5-methylcytosine

Columns and labels:
adipocytes = test: Triglyceride accumulation assay in adipocytes; assay type: cell-based, human; settings: differentiating adipocytes transfected with oligomeric compound; Table 75
follistatin = test: Follistatin mRNA expression in HepG2 cells; assay type: cell-based, human; settings: for Follistatin mRNA: HepG2 cells, Experiment 1, basal (no insulin), four hours, UTC = 100; for Follistatin mRNA expression: Experiment 2, insulin treated: HepG2 cells transfected with oligomeric compound, 1 nM insulin for four hours, UTC + 1 nM insulin = 100
IGFBP-1 = IGFBP-1 mRNA expression in HepG2 cells; assay type: cell-based, human; settings: for IGFBP1 mRNA: HepG2 cells, Experiment 1, basal (no insulin), four hours, UTC = 100; for IGFBP1 mRNA expression: Experiment 2, insulin treated: HepG2 cells transfected with oligomeric compound, 1 nM insulin for four hours, UTC + 1 nM insulin = 100
HuVECs = test: Endothelial tube formation assay in HuVECs; settings: 75 nM oligomeric compound

Row | Substance | TG (triglyceride accumulation) (adipocytes) | Follistatin mRNA (follistatin) | IGFBP1 mRNA (IGFBP-1) | % Activity Relative to UTC (tube formation) (HuVECs; Table 56) | % Activity Relative to UTC (tube formation) (HuVECs; Table 58) | Follistatin mRNA expression (follistatin) | IGFBP1 mRNA expression (IGFBP-1) | % Activity Relative to UTC (tube formation) (HuVECs; Table 59)
1 | 327873 (antisense e[5mC]*eT*eA*e[5mC]*e[5mC]*eA*eT*eA*eG*eG*eG*eT*eA*eA*eA*eA*e[5mC]*e[5mC]*eA*e[5mC]*eT) [compound 327873] | 105 percentage of untreated control (UTC) | 97 | 108 | 100.0% |  |  |  | 
2 | 327924 (antisense eG*e[5mC]*eA*eA*eG*e[5mC]*e[5mC]*e[5mC]*eA*eG*eA*e[5mC]*e[5mC]*eG*e[5mC]*eA*eA*eA*eA*eA*eG) [compound 327924] |  |  |  |  | 88.9% |  |  | 
3 | 327935 (antisense e[5mC]*eT*eA*e[5mC]*e[5mC]*eT*eG*e[5mC]*eA*e[5mC]*eT*eA*eT*eA*eA*eG*e[5mC]*eA*e[5mC]*eT*eT*eT*eA) [compound 327935] | 41 percentage of untreated control (UTC) |  |  |  | 74.1% |  |  | 
4 | 327936 (antisense eA*e[5mC]*eA*eG*e[5mC]*eT*eG*eG*eT*eT*eG*eA*eA*eG*eG*eG*eG*eA*e[5mC]*e[5mC]*eA*eA) [compound 327936] | 23 percentage of untreated control (UTC) |  |  |  | 51.9% |  |  | 
5 | 327940 (antisense eG*eA*eA*e[5mC]*eA*eG*eG*eT*eA*eG*eT*e[5mC]*eT*eG*eA*eA*e[5mC]*eA*e[5mC]*eT*eG*eG*eG) [compound 327940] | 62 percentage of untreated control (UTC) |  |  |  | 59.3% |  |  | 
6 | 327944 (antisense eA*eA*eA*eG*eT*eG*eT*e[5mC]*eA*eG*eA*eT*eA*e[5mC]*eG*eG*eT*eG*eT*eG*eG) [compound 327944] | 38 percentage of untreated control (UTC) |  |  |  | 37.0% |  |  | 
7 | 327945 (antisense e[5mC]*eT*eG*eT*eT*e[5mC]*e[5mC]*eT*eG*e[5mC]*eT*eG*eA*eA*e[5mC]*eT*eG*eA*eG*e[5mC]*e[5mC]*eA) [compound 327945] | 48 percentage of untreated control (UTC) |  |  |  | 59.3% |  |  | 
8 | 327946 (antisense eA*eG*eG*e[5mC]*eG*eA*eA*eG*eG*eA*eT*eG*eA*e[5mC]*eA*eA*eA*eG*eG*eG*eA*eA) [compound 327946] | 82 percentage of untreated control (UTC) | 103 | 108 |  | 51.9% | 109 | 138 | 
9 | 327949 (antisense e[5mC]*eA*e[5mC]*eA*eA*eA*eT*eT*e[5mC]*eG*eG*eA*eT*e[5mC]*eT*eA*e[5mC]*eA*eG*eG*eG*eT*eA) [compound 327949] | 43 percentage of untreated control (UTC) | 112 | 112 |  |  | 111 | 172 | 66.7%
10 | 327950 (antisense eT*e[5mC]*eA*eG*eT*eT*eT*eT*eG*e[5mC]*eA*eT*eA*eG*eA*eT*eT*eT*eG*e[5mC]*eA*e[5mC]*eA) [compound 327950] | 125 percentage of untreated control (UTC) | 83 | 109 |  |  | 89 | 124 | 73.3%
11 | 327952 (antisense e[5mC]*eT*eA*e[5mC]*eG*e[5mC]*eG*eT*eA*eT*eT*e[5mC]*eT*eT*eA*eA*eG*e[5mC]*eA*eA*eT*eA) [compound 327952] | 93 percentage of untreated control (UTC) | 93 | 123 |  |  | 100 | 103 | 53.3%
12 | 327957 (antisense e[5mC]*eA*e[5mC]*eA*eA*eG*eT*eT*e[5mC]*eG*eG*eA*eT*e[5mC]*eT*eA*e[5mC]*eG*eG*eG*eT*eT) [compound 327957] | 29 percentage of untreated control (UTC) | 69 | 143 |  |  | 73 | 184 | 66.7%
13 | 327958 (antisense e[5mC]*e[5mC]*eG*eG*e[5mC]*eT*eG*e[5mC]*eA*eA*e[5mC]*eA*e[5mC]*eA*eA*eG*eA*e[5mC]*eA*e[5mC]*eG*eA) [compound 327958] | 28 percentage of untreated control (UTC) | 91 | 119 |  |  | 112 | 149 | 40.0%
14 | 327959 (antisense e[5mC]*eA*eG*e[5mC]*e[5mC]*eG*e[5mC]*eT*eG*eT*e[5mC]*eA*e[5mC]*eA*e[5mC]*eG*e[5mC]*eA*e[5mC]*eA*eG) [compound 327959] | 33 percentage of untreated control (UTC) | 98 | 124 |  |  | 92 | 141 | 40.0%
15 | 327961 (antisense eG*eG*eG*eG*eT*eA*eT*eT*eT*eG*eA*e[5mC]*eA*eA*eA*e[5mC]*eT*eG*eA*e[5mC]*eA) [compound 327961] | 77 percentage of untreated control (UTC) | 113 | 150 |  |  | 128 | 160 | 53.3%
16 | 327963 (antisense eA*eA*e[5mC]*e[5mC]*eT*eA*eT*e[5mC]*e[5mC]*eT*eG*eA*eA*eT*eT*eA*e[5mC]*eT*eT*eG*eA*eA) [compound 327963] | 124 percentage of untreated control (UTC) | 101 | 108 |  |  | 95 | 111 | 93.3%
17 | 327964 (antisense e[5mC]*e[5mC]*eA*eA*eG*eT*eT*e[5mC]*eT*eG*eT*e[5mC]*eA*eT*eG*e[5mC]*eA*e[5mC]*eT*eG*eA) [compound 327964] | 60 percentage of untreated control (UTC) | 97 | 100 |  |  | 114 | 121 | 86.7%
18 | 327965 (antisense eA*eT*e[5mC]*eA*e[5mC]*eA*eT*eA*eG*eG*eA*eA*eT*eA*eA*eA*eA*eA*eG*e[5mC]*e[5mC]*eA*eT*eA) [compound 327965] | 116 percentage of untreated control (UTC) | 95 | 106 |  |  | 79 | 105 | 100.0%
19 | 327971 (antisense eG*eG*eA*eA*eA*eT*e[5mC]*e[5mC]*e[5mC]*eT*eG*eG*e[5mC]*eA*eA*eT*eG*eT*eG*eA*eT) [compound 327971] | 45 percentage of untreated control (UTC) |  |  |  |  |  |  | 
